In US20260285853A1, “COMPOUNDS AND METHODS FOR MODULATING SPLICING” (REMIX THERAPEUTICS INC., priority 2023, published 2026):
Where two headings read alike, the source gives them in different places.

How the values were obtained:
Assay type in all cases: cell-based
[1] = system: HTT mRNA; experiment: Splicing RT-qPCR assay (THP), Table 2A
[2] = system: MYB mRNA; experiment: Splicing RT-qPCR assay (THP), Table 2A
[3] = system: HTT mRNA; experiment: Gene panel canonical junction qPCR assay, decrease in CJ mRNA, Table 3
Procedure, shortened: (§1)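 A673 cells were plated, left to adhere for 24 h, then dosed; K562 cells were plated in 96- or 384-well format and dosed directly. Both were incubated 24 h at 37 °C with an 11-point 3-fold series (top 10 uM final). Canonical junction mRNA was then read by cDNA synthesis and qPCR.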

[4] = system: MYB mRNA; experiment: as above
Procedure, shortened: as §1

[5] = system: SH-SY5Y (human neuroblastoma) cells; experiment: Cell viability, Cell Titer Glo 2.0 assay; settings: read-out: Viability SHSY5Y.3 GI50
Procedure, shortened: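 SH-SY5Y neuroblastoma cells are exposed to test compounds for 72 hours at 37 °C and 5% CO2, with final DMSO held at 0.1%. Cell viability is then measured with the CellTiter-Glo 2.0 assay.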

[6] = Table 2A (THP), AJ mRNA increase, read-out: HTT AJ (increase in alternative junction mRNA, AC50)
[7] = Table 2A (THP), CJ mRNA decrease, read-out: HTT CJ (decrease in canonical junction mRNA, IC50)
[8] = Table 2A (THP), AJ mRNA increase, read-out: MYB AJ (increase in alternative junction mRNA, AC50)
[9] = Table 2A (THP), CJ mRNA decrease, read-out: MYB CJ (decrease in canonical junction mRNA, IC50)
[10] = decrease in canonical junction (CJ) mRNA, gene panel qPCR, Table 3
[11] = Table 2A, THP, HTT alternative junction (AJ) mRNA, read-out: HTT AJ (AC50, increase in alternative junction mRNA)
[12] = Table 2A, THP, HTT canonical junction (CJ) mRNA, read-out: HTT CJ (IC50, decrease in canonical junction mRNA)
[13] = Table 2A, THP, MYB alternative junction (AJ) mRNA, read-out: MYB AJ (AC50, increase in alternative junction mRNA)
[14] = Table 2A, THP, MYB canonical junction (CJ) mRNA, read-out: MYB CJ (IC50, decrease in canonical junction mRNA)
[15] = decrease in CJ mRNA levels, canonical junction qPCR, gene panel

Structure (SMILES) | IC50 [1, 7] | IC50 [2, 9] | IC50 [3, 10] | IC50 [4, 10] | GI50 [5] | IC50 [1, 12] | IC50 [2, 14] | IC50 [3, 15] | IC50 [4, 15] | AC50 [1, 6] | AC50 [2, 8] | AC50 [1, 11] | AC50 [2, 13]
CCNC1CCN(c2ccc(C(=O)Nc3cc(OCc4ccccc4)c4nc(C)cn4c3)c3nn(C)cc23)CC1 [Compound 324, N-(8-benzyloxy-2-methylimidazo[1,2-a]pyridin-6-yl)-4-[4-(ethylamino)-1-piperidyl]-2-methyl-indazole-7-carboxamide] | > 10 µM | 1 to 10 µM | > 10 µM | 1 to 10 µM | 1 to 10 µM | – | – | – | – | > 10 µM | 0.1 to 1 µM | – | –
CCNC1CCN(c2ccc(C(=O)Nc3cn4cc(CF)nc(C)c4n3)c3nn(C)cc23)CC1 [Compound 350, 4-[4-(ethylamino)-1-piperidyl]-N-[6-(fluoromethyl)-8-methyl-imidazo[1,2-a]pyrazin-2-yl]-2-methyl-indazole-7-carboxamide 2,2,2-trifluoroacetic acid] | > 10 µM | 0.1 to 1 µM | > 10 µM | 0.1 to 1 µM | 1 to 10 µM | – | – | – | – | > 10 µM | 0.1 to 1 µM | – | –
Cn1cc2cc(NC(=O)c3ccc(N4CCC(NC5CC5)CC4)c4cn(C)nc34)c(O)c(CNS(C)(=O)=O)c2n1 [Compound 867] | – | – | – | – | > 10 µM | > 10 µM | > 10 µM | > 10 µM | > 10 µM | – | – | > 10 µM | > 10 µM
CCNC1CCN(c2cc(F)c(C(=O)Nc3cn4cc(C)nc(OC)c4n3)c3nn(C)cc23)CC1 [Compound 351, 4-[4-(ethyl-amino)-1-piperidyl]-6-fluoro-N-(8-methoxy-6-methyl-imidazo[1,2-a]-pyrazin-2-yl)-2-methyl-indazole-7-carboxamide] | > 10 µM | 1 to 10 µM | > 10 µM | 1 to 10 µM | 1 to 10 µM | – | – | – | – | > 10 µM | > 10 µM | – | –
Cn1cc2cc(NC(=O)c3c(F)cc(N4CCC(NC5CC5)CC4)c4cn(C)nc34)c(Cl)cc2n1 [Compound 439, N-(6-chloro-2-methyl-indazol-5-yl)-4-[4-(cyclopropylamino)-1-piperidyl]-6-fluoro-2-methyl-indazole-7-carboxamide] | > 10 µM | > 10 µM | > 10 µM | > 10 µM | > 10 µM | – | – | – | – | > 10 µM | > 10 µM | – | –
Cc1cn2cc(NC(=O)c3ccc(N4CCC(NC5CC5)CC4)c4cn(C)nc34)nc2c(CN(C)C)n1 [Compound 600, 4-(4-(cyclopropylamino)piperidin-1-yl)-N-(8-((dimethylamino)methyl)-6-methylimidazo[1,2-a]pyrazin-2-yl)-2-methyl-2H-indazole-7-carboxamide bis(2,2,2-trifluoroacetate)] | – | – | > 10 µM | > 10 µM | 1 to 10 µM | > 10 µM | > 10 µM | – | – | – | – | > 10 µM | > 10 µM
CC(=O)Nc1nc2c(C(=O)Nc3cc(F)c4nn(C)cc4c3)ccc(N3C[C@H](C)N[C@@H](C)C3)c2s1 [Compound 724, 2-acetamido-7-[(3S,5S)-3,5-dimethylpiperazin-1-yl]-N-(7-fluoro-2-methyl-indazol-5-yl)-1,3-benzothiazole-4-carboxamide] | – | – | – | – | 1 to 10 µM | 0.1 to 1 µM | < 0.1 µM | 0.1 to 1 µM | < 0.1 µM | – | – | 1 to 10 µM | < 0.1 µM
CCNC1CCN(c2ccc(C(=O)Nc3cc(CC(N)=O)c4nn(C)cc4c3)c3nn(C)cc23)CC1 [Compound 873, N-[7-(2-amino-2-oxo-ethyl)-2-methyl-indazol-5-yl]-4-[4-(ethylamino)-1-piperidyl]-2-methyl-indazole-7-carboxamide] | – | – | – | – | > 10 µM | > 10 µM | > 10 µM | > 10 µM | > 10 µM | – | – | > 10 µM | > 10 µM
Cc1cn2cc(NC(=O)c3ccc(N4CCC(NC5CC5)CC4)c4cn(C)nc34)c(F)c2c(C)n1 [Compound 478, 4-[4-(cyclopropyl-amino)-1-piperidyl]-N-(8-fluoro-1,3-dimethyl-pyrrolo[1,2-a]-pyrazin-7-yl)-2-methyl-indazole-7-carboxamide] | > 10 µM | > 10 µM | > 10 µM | > 10 µM | 1 to 10 µM | – | – | – | – | > 10 µM | > 10 µM | – | –
COc1nc2nccn2cc1NC(=O)c1ccc(N2CCC(NC3CC3)CC2)c2cn(C)nc12 [Compound 598, 4-[4-(cyclopropylamino)-1-piperidyl]-N-(7-methoxy-imidazo[1,2-a]pyrimidin-6-yl)-2-methyl-indazole-7-carboxamide] | > 10 µM | 1 to 10 µM | > 10 µM | 1 to 10 µM | 1 to 10 µM | – | – | – | – | > 10 µM | 1 to 10 µM | – | –
COc1nc2c(C(=O)Nc3cc(F)c4nn(C)cc4c3)ccc(N3CC(C)NCC3C)c2s1 (stereo not shown) [Compound 772, 7-(2,5-dimethylpiperazin-1-yl)-N-(7-fluoro-2-methyl-indazol-5-yl)-2-methoxy-1,3-benzothiazole-4-carboxamide] | – | – | – | – | 1 to 10 µM | > 10 µM | 1 to 10 µM | > 10 µM | 1 to 10 µM | – | – | > 10 µM | 0.1 to 1 µM
CCNC1CCN(c2ccc(C(=O)Nc3cn4cc(CC)nc(C)c4n3)c3nn(C)cc23)CC1 [Compound 311, N-(6-ethyl-8-methylimidazo [1,2-a]pyrazin-2-yl)-4-(4-(ethylamino)piperidin-1-yl)-2-methyl-2H-indazole-7-carboxamide 2,2,2-trifluoroacetate] | > 10 µM | > 10 µM | > 10 µM | > 10 µM | > 10 µM | – | – | – | – | > 10 µM | > 10 µM | – | –
Cc1cn2cc(NC(=O)c3ccc(N4CCC(NC5CC5)CC4)c4cn(C)nc34)nc2c(Cn2ccnn2)n1 [Compound 803] | – | – | – | – | 1 to 10 µM | > 10 µM | > 10 µM | > 10 µM | > 10 µM | – | – | > 10 µM | > 10 µM

Continued, in another order:

IC50 [1, 7] | IC50 [2, 9] | IC50 [3, 10] | IC50 [4, 10] | GI50 [5] | IC50 [1, 12] | IC50 [2, 14] | IC50 [3, 15] | IC50 [4, 15] | Structure (SMILES) | AC50 [1, 6] | AC50 [2, 8] | AC50 [1, 11] | AC50 [2, 13]
1 to 10 µM | 0.1 to 1 µM | 1 to 10 µM | 0.1 to 1 µM | 0.1 to 1 µM | – | – | – | – | Cc1cn2cc(NC(=O)c3c(F)cc(N4CCC(NC5CC5)CC4)c4cn(C)nc34)cc(Oc3ccccn3)c2n1 [Compound 399] | 1 to 10 µM | < 0.1 µM | – | –
– | – | – | – | 1 to 10 µM | 1 to 10 µM | 1 to 10 µM | 1 to 10 µM | 1 to 10 µM | COc1cc2c(N3CCC(NC4CC4)CC3)ccc(C(=O)Nc3cc(C)c4nc(C)cn4n3)n2n1 [Compound 695, 4-[4-(cyclopropylamino)-1-piperidyl]-N-(2,8-dimethylimidazo[1,2-b]pyridazin-6-yl)-2-methoxy-pyrazolo[1,5-a]pyridine-7-carboxamide] | – | – | 1 to 10 µM | 1 to 10 µM
1 to 10 µM | 0.1 to 1 µM | 1 to 10 µM | 0.1 to 1 µM | 0.1 to 1 µM | – | – | – | – | COc1cc2nn(C)cc2cc1NC(=O)c1ccc(N2CCC(NC3CC3)CC2)c2cn(C)nc12 [Compound 444, 4-[4-(cyclopropylamino)-1-piperidyl]-N-(6-methoxy-2-methyl-indazol-5-yl)-2-methyl-indazole-7-carbox-amide] | 1 to 10 µM | < 0.1 µM | – | –
– | – | – | – | < 0.1 µM | < 0.1 µM | < 0.1 µM | < 0.1 µM | < 0.1 µM | COc1nc2c(C(=O)Nc3cc(F)c4nn(C)cc4c3)ccc(N3C[C@H](C)N[C@@H](C)C3)c2s1 [Compound 675, 7-[(3S,5S)-3,5-dimethylpiperazin-1-yl]-N-(7-fluoro-2-methyl-indazol-5-yl)-2-methoxy-1,3-benzothiazole-4-carboxamide] | – | – | < 0.1 µM | < 0.1 µM
1 to 10 µM | < 0.1 µM | 1 to 10 µM | < 0.1 µM | 0.1 to 1 µM | – | – | – | – | Cc1cn2cc(NC(=O)c3ccc(N4C[C@H](C)N[C@@H](C)C4)c4cn(C)nc34)cc(F)c2n1 [Compound 588, 4-[(3S, 5S)-3,5-dimethylpiperazin-1-yl]-N-(8-fluoro-2-methyl-imidazo[1,2-a]pyridin-6-yl)-2-methyl-indazole-7-carboxamide] | 1 to 10 µM | < 0.1 µM | – | –
– | – | – | – | 0.1 to 1 µM | 1 to 10 µM | 0.1 to 1 µM | 1 to 10 µM | 0.1 to 1 µM | COCc1cc2c(N3CCC(NC4CC4)CC3)ccc(C(=O)Nc3cc4cn(C)nc4cc3OC)n2n1 [Compound 621, 4-[4-(cyclopropylamino)-1-piperidyl]-2-(methoxymethyl)-N-(6-methoxy-2-methyl-indazol-5-yl)-pyrazolo[1,5-a]-pyridine-7-carboxamide] | – | – | 0.1 to 1 µM | < 0.1 µM
